Patent publication US20210018841A1, “COMPOSITION FOR RESIST UNDERLAYER FILM FORMATION AND PATTERN FORMATION METHOD” (Mitsubishi Gas Chemical Company, Inc., priority 2018, published 2021)

Assay: Solubility in a safe solvent (PGMEA)
Format: physicochemical
Details: ultrasonic waves at 23° C. for 30 minutes, visually observed
Experimental: The solubility of an obtained compound in a safe solvent (propylene glycol monomethyl ether acetate (PGMEA)) was evaluated as follows. The compound was precisely weighed in a test tube, and PGMEA was added to a predetermined concentration. Next, ultrasonic waves were applied at 23° C. for 30 minutes with an ultrasonic cleaning machine, and the subsequent state of the liquid was visually observed. The concentration (% by mass) at which the compound was completely dissolved was defined as the amount of dissolution. […] B: amount of dissolution was 3.0% by mass or more and 5.0% by mass or less. C: amount of dissolution was less than 3.0% by mass.

CCO[Te](OCC)(OCC)OCC [TOX-1, tetraethoxytellurium(IV)]
Solubility of tellurium containing compound: A (amount of dissolution was 5.0% by mass or more)
